According to US20250101052A1, “COMPOUND FOR EGFR KINASE INHIBITOR, COMPOSITION, AND USE THEREOF” (INNOVATION INSTITUTE FOR ARTIFICIAL INTELLIGENCE IN …, priority 2021, published 2025):

Target: Aurora B (Homo sapiens (Human), UniProt Q96GD4)
Test: Activity of other kinases: Aurora B (HTRF)
Type: biochemical
Protocol: Embodiment 5 Activity of Other Kinases
(1) Preparation of 1×kinase reaction buffer:
1 time the volume of 5×kinase reaction buffer and 4 times the volume of water; 5 mM MgCl2; 1 mM DTT.
(2) Screening of Compounds:
a) The compound was diluted with DMSO in a dilution plate.
b) The compound was diluted 40 times into the 1× kinase reaction buffer and oscillated on an oscillator for 20 minutes.
c) 2× was prepared using a 1× enzyme reaction buffer.
d) 2 μL of kinase was added to each well of the reaction plate.
e) 1 μL of the compound diluted in the buffer was added to each well, and the plate was sealed with a sealing film, centrifuged at 1000 rpm for 60 seconds and incubated at 25° C. for 10 minutes.
f) A mixture of 2.5×S2 &TK-substrate-biotin and ATP was prepared using the 1× enzyme reaction buffer, and 2 μL of the S2 &TK-substrate-biotin/ATP mixture was added to the reaction plate.
G) The plate was sealed with a sealing film, centrifuged at 1000 rpm for 60 seconds and incubated at 25° C. for 50&40&30&20 minutes.
h) 4× Sa-XL 665 was prepared using an HTRF detection buffer.
i) 5 μL of Sa-XL 665 and 5 μL of STK/TK-antibody-Cryptate were added to each well, centrifugation was conducted at 1000 rpm for 60 seconds, and incubation was conducted at 25° C. for 1 hour.
j) The fluorescence signals at 615 nm (Cryptate) and 665 nm (XL665) were read using the BGM microplate reader.

Sequence of Aurora B (Q96GD4 whole entry): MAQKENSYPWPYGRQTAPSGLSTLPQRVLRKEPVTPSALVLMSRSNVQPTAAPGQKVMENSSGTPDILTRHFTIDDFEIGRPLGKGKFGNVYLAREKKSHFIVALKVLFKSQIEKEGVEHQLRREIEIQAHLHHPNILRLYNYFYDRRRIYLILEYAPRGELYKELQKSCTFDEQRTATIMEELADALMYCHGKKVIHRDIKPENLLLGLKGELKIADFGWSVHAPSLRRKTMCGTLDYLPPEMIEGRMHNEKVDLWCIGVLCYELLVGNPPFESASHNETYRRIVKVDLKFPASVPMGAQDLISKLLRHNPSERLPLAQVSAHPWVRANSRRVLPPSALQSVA

SMILES | IC50 [nM]
CCc1cc(Nc2ncc(Cl)c(Nc3ccc(C)c(C)c3P(C)(C)=O)n2)c(OC)cc1N1CCC(N2CCN(C)CC2)CC1 [Comparative Compound A, reference compound] | 2010
CCc1cc(Nc2ncc(Cl)c(Nc3ccc(C)c(C)c3P(C)(C)=O)n2)c(OC)cc1N1CC2(CCN(C)CC2)C1 [Compound 24, (6-((5-Chloro-2-((5-ethyl-2-methoxy-4-(7-methyl-2,7-diazaspiro[3.5]non-2-yl)phenyl)amino)pyrimidin-4-yl)amino)-2,3-dimethylphenyl)dimethylphosphine oxide] | 410
